# Source: patent publication US12617756B2 (ABIVAX, priority 2019, dated 2026)
# Tested on: RSV A2
# Assay: Screening for RSV inhibition using Viral ToxGlo assay (cytopathic effect inhibition in HEp-2 cells)
# Type: cell-based, Respiratory Syncytial Virus (RSV)
# Conditions: human respiratory syncytial virus; RSV A2 in HEp-2 cells, MOI 0.5, 72h p.i., cytopathic effect inhibition relative to virus control, Viral ToxGlo luminescence
# Protocol: Protocol for Screening Antiviral Compounds for RSV Inhibition and Cytotoxicity Using Viral ToxGlo Assay
# HEp-2 cells were maintained in Eagle's minimum essential medium (EMEM) with Earle's BSS adjusted to contain 2 mM L-glutamine, 10% fetal bovine serum, 100 U/ml penicillin and 100 µg/ml streptomycin. For the purposes of the screening assay they were grown to 90% confluency, trypsinized and recovered. The trypsin was neutralised with cell culture media and cells were centrifuged at 150×g for 5 minutes before discarding the supernatant and resuspending cell pellet in assay media (EMEM with Earle's BSS adjusted to contain 2 mM L-glutamine, 2% fetal bovine serum and 100 U/ml penicillin and 100 µg/ml streptomycin). The cells were seeded into white clear-bottomed cell culture plates at a density of 1.5×10^4 cells/well in 50 μl and 4×10^3 cells/well in 25 μl for 96 well plates and 384 well plates respectively. For the media/background control column assay media only was added. Cell plates were placed in a humid chamber and incubated overnight at 37° C./5% CO2. After overnight incubation cells were checked for confluency and healthy appearance.
# Test articles were made up at 10× test concentration in a maximum DMSO concentration of 10% (final assay concentration maximal 1% DMSO) and added to the cell plates in volumes of […] for 96 well plates and 5 μl for 384 well plates. For cell control and virus control wells the test article solvent only was added. Virus or assay media for cytotoxicity test wells and media/cell control wells was added immediately after test articles at an MOI of […] for 96 and 384 well plates respectively. Virus suspension was prepared by thawing RSV A2 frozen stocks and diluting to the required concentration of plaque forming units in assay media on ice.
# Cell plates were further incubated inside a humid chamber for 72h p.i at 37° C./5% CO2. After the incubation period cells were observed under the microscope to check for characteristic cytopathic effect in virus control wells and healthy cells in the cell control wells. After plates were adjusted to room temperature 20/40 μl Viral ToxGlo (Promega) was added to each well of the 384/96 well cell plates. Plates were incubated at room temperature, protected from light on a plate rocker for 20 minutes before measuring the luminescence on a spectrophotometer (Biotek Synergy HTX).
row,Structure (SMILES),EC50 [nM]
1,"Cc1cc(C(=O)N=C2NCCN2)cc(C2CC2)c1Nc1cccc(C(=O)NC(C)C)c1 [Compound 106, 3-cyclopropyl-N-[(2Z)-imidazolidin-2-ylidene]-5-methyl-4-({3-[(propan-2-yl)carbamoyl]phenyl}amino)benzamide]",5.7
2,"N#CC1(NC(=O)c2ccnc(Nc3c(F)cc(C(=O)N=C4NCCN4)cc3C3CC3)c2F)CC1 [Compound 152, N-(1-cyanocyclopropyl)-2-[(2-cyclopropyl-6-fluoro-4-{[imidazolidin-2-ylidene]carbamoyl}phenyl)amino]-3-fluoropyridine-4-carboxamide]",1140
3,"CC(C)(O)c1cc(C(=O)N=C2NCCN2)ccc1Nc1cccc(C(=O)N2CCOCC2)c1Cl [Compound 45, 4-{[2-chloro-3-(morpholine-4-carbonyl)phenyl]amino}-3-(2-hydroxypropan-2-yl)-N-(imidazolidin-2-ylidene)benzamide]",91.5
4,"CC(C)NC(=S)c1cccc(Nc2ccc(C(=O)N=C3NCCN3)cc2C2CC2)c1 [Compound 34, 3-cyclopropyl-N-[(2Z)-imidazolidin-2-ylidene]-4-({3-[(propan-2-yl)carbamothioyl]phenyl}amino)benzamide]",50.4
5,"CC1(NC(=O)c2cccc(Nc3c(F)cc(C(=O)N=C4NCCN4)cc3C3CCCO3)c2Cl)CC1 (centres unmarked) [Compound 135, 4-({2-chloro-3-[(1-methylcyclopropyl)carbamoyl]phenyl}amino)-3-fluoro-N-[imidazolidin-2-ylidene]-5-(oxolan-2-yl)benzamide]",28.7
6,"COc1c(Nc2ccc(C(=O)N=C3NCCN3)cc2C2CC2)cccc1C(=O)NCCC(C)C [Compound 27, 3-cyclopropyl-N-[(2Z)-imidazolidin-2-ylidene]-4-({2-methoxy-3-[(3-methylbutyl)carbamoyl]phenyl}amino)benzamide]",41.4
7,"CC(C)CCNC(=O)c1ccccc1Nc1ccc(C(=O)N=C2NCCN2)cc1C1CC1 [Compound 62, 3-cyclopropyl-N-[(2E)-imidazolidin-2-ylidene]-4-({2-[(3-methylbutyl)carbamoyl]phenyl}amino)benzamide]",641
8,"CC1(NC(=O)c2ccnc(Nc3c(F)cc(C(=O)N=C4NCCN4)cc3C3CC3)c2Cl)CC1 [Compound 136, 3-chloro-2-[(2-cyclopropyl-6-fluoro-4-{[imidazolidin-2-ylidene]carbamoyl}phenyl)amino]-N-(1-methylcyclopropyl)pyridine-4-carboxamide]",32
9,"CC1(NC(=O)c2cccc(Nc3ncc(C(=O)N=C4NCCN4)cc3C3CC3)c2Cl)CC1 [Compound 146, 6-({2-chloro-3-[(1-methylcyclopropyl)carbamoyl]phenyl}amino)-5-cyclopropyl-N-[imidazolidin-2-ylidene]pyridine-3-carboxamide]",253
10,"CC1(NC(=O)c2cccc(Nc3ccc(C(=O)N=C4NCCN4)cc3C3CC3)c2Cl)CC1 [Compound 167, 4-({2-chloro-3-[(1-methylcyclopropyl)carbamoyl]phenyl}amino)-3-cyclopropyl-N-[imidazolidin-2-ylidene]benzamide]",17.8
11,"O=C(N=C1NCCN1)c1ccc(Nc2cccc(C(=O)N3CCOCC3)c2Cl)c(C2CCOC2)c1 (centres unmarked) [Compound 15, 4-{[2-chloro-3-(morpholine-4-carbonyl)phenyl]amino}-N-[(2E)-imidazolidin-2-ylidene]-3-(oxolan-3-yl)benzamide]",14.9
12,"CC1(NC(=O)c2ccnc(Nc3c(F)cc(C(=O)N=C4NCCN4)cc3C3CC3)c2F)CC1 [Compound 147, 2-[(2-cyclopropyl-6-fluoro-4-{[imidazolidin-2-ylidene]carbamoyl}phenyl)amino]-3-fluoro-N-(1-methylcyclopropyl)pyridine-4-carboxamide]",99.4
13,"O=C(N=C1NCCN1)c1ccc(Nc2cccc(C(=O)NC3CC3)c2Cl)c(C2CC2)c1 [Compound 25, 4-{[2-chloro-3-(cyclopropylcarbamoyl)phenyl]amino}-3-cyclopropyl-N-[(2Z)-imidazolidin-2-ylidene]benzamide]",32.2
14,"CC(C)NC(=O)c1cc(F)cc(Nc2c(F)cc(C(=O)N=C3NCCN3)cc2C2CC2)c1 [Compound 128, 3-cyclopropyl-5-fluoro-4-({3-fluoro-5-[(propan-2-yl)carbamoyl]phenyl}amino)-N-[imidazolidin-2-ylidene]benzamide]",13.2
15,"CC(C)NC(=O)c1cccc(Nc2ccc(C(=O)N=C3NCCN3)cc2C2CC2)c1-c1ccoc1 [Compound 92, 3-[(2-cyclopropyl-4-{[(2Z)-imidazolidin-2-ylidene]carbamoyl}phenyl)amino]-2-(furan-3-yl)-N-(propan-2-yl)benzamide]",277
16,"O=C(N=C1NCCN1)c1ccc(Nc2cccc(OCCCC3CCCCC3)c2)c(C2CC2)c1 [Compound 22, 4-{[3-(3-cyclohexylpropoxy)phenyl]amino}-3-cyclopropyl-N-[(2E)-imidazolidin-2-ylidene]benzamide]",26
17,"O=C(N=C1NCCN1)c1cc(F)c(Nc2cccc(C(=O)N3CCOCC3)c2)c(C2CC2)c1 [Compound 119, 3-cyclopropyl-5-fluoro-N-[imidazolidin-2-ylidene]-4-{[3-(morpholine-4-carbonyl)phenyl]amino}benzamide]",108
18,"CC1(C(=O)Nc2cccc(Nc3c(F)cc(C(=O)N=C4NCCN4)cc3C3CC3)c2)COC1 [Compound 163, N-{3-[(2-cyclopropyl-6-fluoro-4-{[imidazolidin-2-ylidene]carbamoyl}phenyl)amino]phenyl}-3-methyloxetane-3-carboxamide]",35
19,"CC(C)NC(=O)c1cccc(Nc2ccc(C(=O)/N=C3\NCCN3C3CC3)cc2C2CC2)c1 [Compound 43, 3-cyclopropyl-N-[(2E)-1-cyclopropylimidazolidin-2-ylidene]-4-({3-[(propan-2-yl)carbamoyl]phenyl}amino)benzamide]",79.8
20,"CC(C)NC(=O)c1cccc(Nc2ccc(C(=O)N=C3NCCN3)cc2C2CC2)c1F [Compound 98, 3-cyclopropyl-4-({2-fluoro-3-[(propan-2-yl)carbamoyl]phenyl}amino)-N-[(2Z)-imidazolidin-2-ylidene]benzamide]",228
21,"CC(C)NC(=O)c1cccc(Nc2ccc(C(=O)N=C3NCCN3)cc2C2CCOC2)c1 (centres unmarked) [Compound 59, N-[(2E)-imidazolidin-2-ylidene]-3-(oxolan-3-yl)-4-({3-[(propan-2-yl)carbamoyl]phenyl}amino)benzamide]",237
22,"O=C(N=C1NCCN1)c1ccc(Nc2cccc(OCC3COCCO3)c2Cl)c(C2CC2)c1 (centres unmarked) [Compound 23, 4-({2-chloro-3-[(1,4-dioxan-2-yl)methoxy]phenyl}amino)-3-cyclopropyl-N-[(2E)-imidazolidin-2-ylidene]benzamide]",30.3
23,"O=C(N=C1NCCN1)c1cc(F)c(Nc2nccc(C(=O)N3CCOCC3)c2Cl)c(C2CC2)c1 [Compound 153, 4-{[3-chloro-4-(morpholine-4-carbonyl)pyridin-2-yl]amino}-3-cyclopropyl-5-fluoro-N-[imidazolidin-2-ylidene]benzamide]",31.6
24,"CC(C)=CCn1nnc(-c2cccc(Nc3ccc(C(=O)/N=C4\NCCN4C)cc3C3CC3)c2)n1 [Compound 160, 3-cyclopropyl-4-({3-[2-(3-methylbut-2-en-1-yl)-2H-1,2,3,4-tetrazol-5-yl]phenyl}amino)-N-[1-methylimidazolidin-2-ylidene]benzamide]",545
25,"O=C(N=C1NCCN1)c1ccc(Nc2cccc(C(=O)NC3CC3)c2C(F)(F)F)c(C2CC2)c1 [Compound 116, 3-cyclopropyl-4-f{[3-(cyclopropylcarbamoyl)-2-(trifluoromethyl)phenyl]amino}-N—[imidazolidin-2-ylidene]benzamide]",131
26,"CC(C)C(=O)Nc1cccc(Nc2ccc(C(=O)N=C3NCCN3)cc2Cl)c1 [Compound 72, 3-chloro-N-[(2E)-imidazolidin-2-ylidene]-4-{[3-(2-methylpropanamido)phenyl]amino}benzamide]",1230
27,"CC(C)NC(=O)c1cccc(Nc2ccc(C(=O)N=C3N(C)CCN3C)cc2C(C)(C)C)c1 [Compound 71, 3-tert-butyl-N-[(2Z)-1,3-dimethylimidazolidin-2-ylidene]-4-({3-[(propan-2-yl)carbamoyl]phenyl}amino)benzamide]",1170
28,"CC1(C(=O)Nc2cccc(Nc3ccc(C(=O)N=C4NCCN4)cc3C3CC3)c2)CC1 [Compound 21, 3-cyclopropyl-N-[(2Z)-imidazolidin-2-ylidene]-4-{[3-(1-methylcyclopropaneamido)phenyl]amino}benzamide]",25.8
29,"CC(C)(C)C1(NC(=O)c2cccc(Nc3ccc(C(=O)N=C4NCCN4)cc3C3CC3)c2)CC1 [Compound 111, 4-({3-[(1-tert-butylcyclopropyl)carbamoyl]phenyl}amino)-3-cyclopropyl-N-[(2Z)-imidazolidin-2-ylidene]benzamide]",30.4
